Where “and” joins values, the source holds several entries; their conditions need not be identical. Equal values may be shown once.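 Growth conditions: 96-well plates. Treatment: test compound, 48 hours, 5 concentrations. Analysis: linear interpolation between bracketing concentrations; unreached endpoints set to highest concentration. At the GI50, growth is halved. TGI marks complete inhibition of growth.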
Tests used:
Assay in all cases: NCI anticancer screen, dose series, 48 h
[1] = test system: NCI-H522 lung
[2] = test system: CAKI-1 renal
[3] = test system: HOP-18 NSCLC
[4] = test system: A498 renal
[5] = test system: BT-549 breast
[6] = test system: SNB-78 CNS
[7] = test system: MOLT-4 leukemia
[8] = test system: OVCAR-3 ovarian
[9] = test system: SR leukemia
[10] = test system: SF-295 CNS

| Compound | GI50 [1] [µM] | TGI [1] | GI50 [2] [µM] | TGI [3] [µM] | GI50 [4] | TGI [4] | TGI [5] [µM] | GI50 [6] [µM] | TGI [6] | GI50 [7] [µM] | GI50 [8] | TGI [8] | TGI [9] [µM] | GI50 [10] | TGI [10] | TGI [2] [µM] | TGI [7] [µM] |
| --- | --- | --- | --- | --- | --- | --- | --- | --- | --- | --- | --- | --- | --- | --- | --- | --- | --- |
| CC[C@@]1(O)C(=O)OCc2c1cc1n(c2=O)Cc2cc3cc(O)ccc3nc2-1 | < 0.0075 | 0.103 µM and 0.447 µM | 0.042 | 5.2 | 0.195 µM and 0.0455 µM | 0.703 µM and 0.453 µM | 26.6 | 0.213 | 18.1 µM and > 100 µM | 0.011 | 0.069 µM and 0.0368 µM | 0.301 µM and 0.228 µM | 2.14 | 0.0282 µM and 0.029 µM | 0.799 µM and 3.91 µM |  |  |
| Nc1nc(N)c2c(Cl)c(CNc3ccc(Cl)c(Cl)c3)ccc2n1 |  | 9.56 µM |  | 17.1 |  | 8.68 µM | 19.1 |  | 25.4 µM |  |  | 11 µM | 7.36 |  | 12.2 µM | 16 | 9.41 |
| NC(=S)N/N=C/C(O[C@@H](/C=N/NC(N)=S)CO)n1cnc2c(N)ncnc21 (stereo not given in full) |  | > 72.4 µM |  | > 100 |  | > 100 µM |  |  | > 100 µM |  |  | > 94.5 µM | > 100 |  | > 100 µM | > 100 | > 100 |
| N#CC(Cl)CS(=O)(=O)c1ccccc1 (stereo not given) |  | 2.26 µM |  | 22 |  | 30.9 µM | 30.9 |  | 61.3 µM | 0.0561 |  | 7.17 µM | 12.1 |  | 36.3 µM | 10.2 | 3.62 |
